# Source: US20080009418A1, “Selective Inhibitors” (Alchemia LTD., priority 2004, published 2008)
# How the values were obtained:
# Human δ-opioid (DOP) = target: T1, Human δ-opioid (DOP) (Homo sapiens, UniProt P41143); assay: Radioligand binding, human δ-opioid (DOP) membranes, FlashPlate, [3H]-Bremazocine; conditions: compound at 10 μM; [3H]-Bremazocine
# T1 construct: purchased Perkin Elmer Biosignal
# How it was run: (§1)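 Cloned human receptor membranes were coated onto FlashPlate wells and incubated with radioligand and compound (added from a 0.5 mM DMSO daughter plate) for 1 hour at room temperature in the dark. Scintillation counting gave percent inhibition, with DMSO defining total and reference ligand defining non-specific binding.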
# Human κ-Opioid (KOP) = target: T2, Human κ-Opioid (KOP) (Homo sapiens, UniProt P41145); assay: Radioligand binding, human κ-opioid (KOP) membranes, filtration, [3H]-Diprenorphine; conditions: compound at 10 μM, [3H]-Diprenorphine
# T2 construct: purchased Perkin Elmer Biosignal
# How it was run: (§2)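 Filtration binding on cloned human receptor membranes (1 Unit/well), [125I]-Substance P for NK1 and [3H]-Diprenorphine for KOP, 1 h at room temperature. Filters PEI-presoaked, washed with cold 50 mM Tris-HCl pH 7.4, counted by scintillation; percent inhibition calculated, reference ligand defining non-specific binding.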
# Human Melanocortin (MC3) = target: T3, Human Melanocortin (MC3) (Homo sapiens, UniProt P41968); assay: Radioligand binding, human melanocortin MC3 membranes, FlashPlate, [125I]-NDP-αMSH; conditions: compound at 10 μM, [125I]-NDP-αMSH
# T3 construct: purchased Perkin Elmer Biosignal
# How it was run: as §1
# Human Melanocortin (MC4) = target: T4, Human Melanocortin (MC4) (Homo sapiens, UniProt P32245); assay: Radioligand binding, human melanocortin MC4 membranes, FlashPlate, [125I]-NDP-αMSH; conditions: compound at 10 μM, [125I]-NDP-αMSH
# T4 construct: purchased Perkin Elmer Biosignal
# How it was run: as §1
# Human melanocortin (MC5) = target: T5, Human melanocortin (MC5) (Homo sapiens, UniProt P33032); assay: Radioligand binding, human melanocortin MC5 membranes, FlashPlate, [125I]-NDP-αMSH; conditions: compound at 10 μM, [125I]-NDP-αMSH
# T5 construct: purchased Perkin Elmer Biosignal
# How it was run: as §1
# [1] = target: T6, Human melanin-concentrating hormone (MCH1) (Homo sapiens, UniProt Q99705); assay: Radioligand binding, human melanin-concentrating hormone MCH1 membranes, FlashPlate, [125I]-S36057; conditions: compound at 10 μM, [125I]-S36057
# T6 construct: purchased Perkin Elmer Biosignal
# How it was run: as §1
# Human μ-opioid (MOP) = target: T7, Human μ-opioid (MOP) (Homo sapiens, UniProt P35372); assay: Radioligand binding, human μ-opioid (MOP) membranes, FlashPlate, [3H]-Naloxone; conditions: compound at 10 μM; [3H]-Naloxone
# T7 construct: purchased Perkin Elmer Biosignal
# How it was run: as §1
# Human neurokinin (NK1) = target: T8, Human neurokinin (NK1) (Homo sapiens, UniProt P25103); assay: Radioligand binding, human neurokinin NK1 membranes, filtration, [125I]-Substance P; conditions: compound at 10 μM; [125I]-Substance P
# T8 construct: purchased Perkin Elmer Biosignal
# How it was run: as §2
# [2] = target: T9, Human neuropeptide Y (NPY-Y1) (Homo sapiens, UniProt P25929); assay: Radioligand binding, human neuropeptide Y NPY-Y1 membranes, FlashPlate, [125I]-PYY; conditions: compound at 10 μM; [125I]-PYY
# T9 construct: purchased Perkin Elmer Biosignal
# T9 sequence (P25929 1-384): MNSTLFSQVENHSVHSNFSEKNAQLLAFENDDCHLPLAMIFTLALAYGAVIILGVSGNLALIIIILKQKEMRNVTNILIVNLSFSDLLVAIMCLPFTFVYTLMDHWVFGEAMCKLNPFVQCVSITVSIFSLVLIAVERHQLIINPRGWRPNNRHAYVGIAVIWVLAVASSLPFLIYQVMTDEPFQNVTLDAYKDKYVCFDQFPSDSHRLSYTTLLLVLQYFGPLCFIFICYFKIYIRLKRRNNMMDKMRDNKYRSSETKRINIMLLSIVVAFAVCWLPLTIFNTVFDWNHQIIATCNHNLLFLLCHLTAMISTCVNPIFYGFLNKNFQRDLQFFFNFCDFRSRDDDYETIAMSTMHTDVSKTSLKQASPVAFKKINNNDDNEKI
# How it was run: as §1
# Human opioid (ORL1) = target: T10, Human opioid (ORL1) (Homo sapiens, UniProt P41146); assay: Radioligand binding, human opioid ORL1 membranes, FlashPlate, [125I]-Nociceptin; conditions: compound at 10 μM; [125I]-Nociceptin
# T10 construct: purchased Perkin Elmer Biosignal
# How it was run: as §1
# Mouse urotensin (mUR2) = target: T11, Mouse urotensin (mUR2) (Mus musculus, UniProt Q8VIH9); assay: Radioligand binding, mouse urotensin mUR2 membranes, FlashPlate, [125I]-Urotensin II; conditions: compound at 10 μM; [125I]-Urotensin II
# T11 construct: purchased Perkin Elmer Biosignal
# T11 sequence (Q8VIH9 1-385): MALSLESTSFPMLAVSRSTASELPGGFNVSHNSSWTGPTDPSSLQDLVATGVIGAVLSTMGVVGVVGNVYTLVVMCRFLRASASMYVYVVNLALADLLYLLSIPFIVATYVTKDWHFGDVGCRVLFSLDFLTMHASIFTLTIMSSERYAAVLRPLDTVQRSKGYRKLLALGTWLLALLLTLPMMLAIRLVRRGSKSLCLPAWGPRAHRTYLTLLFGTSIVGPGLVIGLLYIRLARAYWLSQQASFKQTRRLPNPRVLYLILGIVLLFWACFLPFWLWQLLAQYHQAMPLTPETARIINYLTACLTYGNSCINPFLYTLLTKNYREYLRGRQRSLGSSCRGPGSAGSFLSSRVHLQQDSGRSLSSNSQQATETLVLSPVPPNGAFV
# How it was run: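 Cloned mouse urotensin (mUR2) receptor membranes from Perkin Elmer Biosignal were immobilized in FlashPlate microplates using a proprietary coating. Each well got 19.5 μl buffer, then 0.5 μl of DMSO, reference ligand, or compound. Adding 5 μl of [125I]-Urotensin II, diluted to 5× final concentration in binding buffer, started binding. Plates were sealed with TopSeal-A and incubated 1 hour at room temperature in the dark. Wells were counted for 30 seconds each on a TopCount after a 60-second delay, and percentage inhibition was calculated.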
# T1 sequence (P41143 whole entry): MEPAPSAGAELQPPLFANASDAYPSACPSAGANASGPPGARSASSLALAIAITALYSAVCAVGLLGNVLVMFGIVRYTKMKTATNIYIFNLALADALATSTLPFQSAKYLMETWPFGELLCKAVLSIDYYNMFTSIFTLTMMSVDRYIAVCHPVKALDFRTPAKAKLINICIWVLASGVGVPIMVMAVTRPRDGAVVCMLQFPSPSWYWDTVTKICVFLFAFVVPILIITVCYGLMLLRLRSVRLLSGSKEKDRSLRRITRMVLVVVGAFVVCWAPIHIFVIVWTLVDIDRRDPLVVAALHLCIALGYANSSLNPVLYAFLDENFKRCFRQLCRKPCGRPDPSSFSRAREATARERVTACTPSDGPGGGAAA
# T7 sequence (P35372 whole entry): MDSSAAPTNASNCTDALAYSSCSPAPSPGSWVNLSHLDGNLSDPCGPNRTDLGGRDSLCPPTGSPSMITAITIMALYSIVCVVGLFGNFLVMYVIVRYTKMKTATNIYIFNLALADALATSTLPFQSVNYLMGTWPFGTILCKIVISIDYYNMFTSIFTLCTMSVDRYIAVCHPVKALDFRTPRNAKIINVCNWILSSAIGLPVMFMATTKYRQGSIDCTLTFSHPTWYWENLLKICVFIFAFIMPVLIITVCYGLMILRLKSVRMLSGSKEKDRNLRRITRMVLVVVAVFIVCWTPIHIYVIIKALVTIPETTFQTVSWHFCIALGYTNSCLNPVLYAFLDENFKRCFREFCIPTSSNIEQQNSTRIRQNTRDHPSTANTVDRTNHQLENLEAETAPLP
# T5 sequence (P33032 whole entry): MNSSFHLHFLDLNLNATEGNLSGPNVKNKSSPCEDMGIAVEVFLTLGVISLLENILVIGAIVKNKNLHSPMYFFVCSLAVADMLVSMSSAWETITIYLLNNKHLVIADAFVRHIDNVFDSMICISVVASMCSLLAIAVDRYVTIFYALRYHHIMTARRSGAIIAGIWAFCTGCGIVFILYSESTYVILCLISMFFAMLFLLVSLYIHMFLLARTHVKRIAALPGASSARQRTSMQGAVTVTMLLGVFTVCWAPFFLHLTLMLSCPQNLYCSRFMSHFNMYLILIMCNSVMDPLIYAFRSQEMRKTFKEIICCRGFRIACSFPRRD
# T2 sequence (P41145 whole entry): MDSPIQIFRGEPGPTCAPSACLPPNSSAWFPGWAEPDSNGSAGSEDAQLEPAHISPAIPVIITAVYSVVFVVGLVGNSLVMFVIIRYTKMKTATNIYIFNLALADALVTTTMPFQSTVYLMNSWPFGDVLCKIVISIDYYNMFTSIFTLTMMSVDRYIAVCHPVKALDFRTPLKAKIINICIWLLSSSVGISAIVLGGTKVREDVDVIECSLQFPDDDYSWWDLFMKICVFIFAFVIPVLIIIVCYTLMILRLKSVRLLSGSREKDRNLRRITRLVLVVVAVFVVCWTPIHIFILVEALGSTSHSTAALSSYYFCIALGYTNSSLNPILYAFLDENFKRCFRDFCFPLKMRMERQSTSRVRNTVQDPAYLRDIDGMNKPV
# T6 sequence (Q99705 whole entry): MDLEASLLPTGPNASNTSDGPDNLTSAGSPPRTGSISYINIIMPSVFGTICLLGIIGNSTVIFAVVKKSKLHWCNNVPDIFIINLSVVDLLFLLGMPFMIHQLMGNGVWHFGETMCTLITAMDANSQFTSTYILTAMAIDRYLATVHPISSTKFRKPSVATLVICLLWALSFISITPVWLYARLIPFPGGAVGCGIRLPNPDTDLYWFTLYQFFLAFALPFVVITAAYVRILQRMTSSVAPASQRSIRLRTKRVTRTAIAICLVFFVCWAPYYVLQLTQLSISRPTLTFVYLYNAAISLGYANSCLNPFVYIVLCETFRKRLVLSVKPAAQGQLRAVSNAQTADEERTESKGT
# T4 sequence (P32245 whole entry): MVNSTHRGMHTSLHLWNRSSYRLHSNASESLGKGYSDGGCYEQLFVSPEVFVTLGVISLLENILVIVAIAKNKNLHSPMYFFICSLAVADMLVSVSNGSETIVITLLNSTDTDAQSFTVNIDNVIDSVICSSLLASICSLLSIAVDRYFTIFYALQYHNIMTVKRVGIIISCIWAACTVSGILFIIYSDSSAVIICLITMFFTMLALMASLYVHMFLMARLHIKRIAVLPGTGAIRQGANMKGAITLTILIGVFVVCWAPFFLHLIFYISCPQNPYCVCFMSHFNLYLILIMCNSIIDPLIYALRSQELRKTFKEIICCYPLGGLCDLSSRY
# T8 sequence (P25103 whole entry): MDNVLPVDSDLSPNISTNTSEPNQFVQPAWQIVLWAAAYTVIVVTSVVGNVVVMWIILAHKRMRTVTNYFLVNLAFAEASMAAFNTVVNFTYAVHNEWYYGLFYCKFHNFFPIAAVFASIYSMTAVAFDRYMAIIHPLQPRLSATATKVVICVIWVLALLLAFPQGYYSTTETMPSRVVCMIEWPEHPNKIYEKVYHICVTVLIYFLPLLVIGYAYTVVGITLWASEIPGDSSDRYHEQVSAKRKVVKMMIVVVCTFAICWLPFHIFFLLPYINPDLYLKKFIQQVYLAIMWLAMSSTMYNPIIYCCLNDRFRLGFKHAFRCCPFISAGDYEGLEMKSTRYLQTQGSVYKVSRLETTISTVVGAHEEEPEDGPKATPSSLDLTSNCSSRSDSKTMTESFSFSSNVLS
# T3 sequence (P41968 whole entry): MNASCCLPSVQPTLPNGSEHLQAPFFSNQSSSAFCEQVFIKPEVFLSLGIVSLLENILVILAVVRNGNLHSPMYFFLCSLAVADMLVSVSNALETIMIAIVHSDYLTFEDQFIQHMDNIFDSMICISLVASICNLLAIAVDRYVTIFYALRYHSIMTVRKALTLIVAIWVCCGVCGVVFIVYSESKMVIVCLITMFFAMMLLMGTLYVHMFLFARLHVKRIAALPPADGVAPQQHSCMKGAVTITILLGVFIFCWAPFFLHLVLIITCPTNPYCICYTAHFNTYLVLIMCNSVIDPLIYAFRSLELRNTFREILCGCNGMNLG
# T10 sequence (P41146 whole entry): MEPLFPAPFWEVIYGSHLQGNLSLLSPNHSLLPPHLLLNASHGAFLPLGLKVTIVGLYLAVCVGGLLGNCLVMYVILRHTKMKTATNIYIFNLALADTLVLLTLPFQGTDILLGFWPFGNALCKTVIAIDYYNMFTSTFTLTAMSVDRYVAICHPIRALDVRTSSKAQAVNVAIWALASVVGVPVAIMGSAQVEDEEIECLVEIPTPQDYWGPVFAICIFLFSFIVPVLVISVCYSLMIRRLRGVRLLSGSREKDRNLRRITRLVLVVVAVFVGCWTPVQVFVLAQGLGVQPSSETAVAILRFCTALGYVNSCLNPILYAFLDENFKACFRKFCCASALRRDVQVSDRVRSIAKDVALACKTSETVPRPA
SMILES,"A1: inhibition of radioligand binding, human δ-opioid (DOP) (Human δ-opioid (DOP))","A2: inhibition of radioligand binding, human κ-opioid (KOP) (Human κ-Opioid (KOP); 10 µM)","A3: inhibition of radioligand binding, human melanocortin (MC3) (Human Melanocortin (MC3); 10 µM)","A4: inhibition of radioligand binding, human melanocortin (MC4) (Human Melanocortin (MC4); 10 µM)","A5: inhibition of radioligand binding, human melanocortin (MC5) (Human melanocortin (MC5); 10 µM)","A6: inhibition of radioligand binding, human melanin-concentrating hormone (MCH1) ([1]; 10 µM)","A7: inhibition of radioligand binding, human μ-opioid (MOP) (Human μ-opioid (MOP))","A8: inhibition of radioligand binding, human neurokinin (NK1) (Human neurokinin (NK1))","A9: inhibition of radioligand binding, human neuropeptide Y (NPY-Y1) [2]","A10: inhibition of radioligand binding, human opioid (ORL1) (Human opioid (ORL1))","A11: inhibition of radioligand binding, mouse urotensin (mUR2) (Mouse urotensin (mUR2))","A2: inhibition of radioligand binding, human κ-opioid (KOP) (Human κ-Opioid (KOP))","A3: inhibition of radioligand binding, human melanocortin (MC3) (Human Melanocortin (MC3))","A4: inhibition of radioligand binding, human melanocortin (MC4) (Human Melanocortin (MC4))","A5: inhibition of radioligand binding, human melanocortin (MC5) (Human melanocortin (MC5))","A6: inhibition of radioligand binding, human melanin-concentrating hormone (MCH1) [1]"
N=C(N)NCCC(=O)N[C@H]1C(OCc2ccc(Cl)cc2)O[C@H](COCc2ccc3ccccc3c2)[C@@H](O)[C@@H]1OCc1ccc2ccccc2c1 (stereo partly shown) [compound 528],− (“−” indicates less than 50% inhibition at 10 μM),− (“−” indicates less than 50% inhibition at 10 μM),− (“−” indicates less than 50% inhibition at 10 μM),− (“−” indicates less than 50% inhibition at 10 μM),− (“−” indicates less than 50% inhibition at 10 μM),− (“−” indicates less than 50% inhibition at 10 μM),− (“−” indicates less than 50% inhibition at 10 μM),+ (“+” indicates greater than 50% inhibition at 10 μM),− (“−” indicates less than 50% inhibition at 10 μM),− (“−” indicates less than 50% inhibition at 10 μM),− (“−” indicates less than 50% inhibition at 10 μM),–,–,–,–,–
N=C(N)NCCC(=O)N[C@H]1C(OCc2ccc(Cl)cc2)O[C@H](COCc2ccc3ccccc3c2)[C@@H](O)[C@@H]1OCc1ccc2ccccc2c1 (stereo partly shown) [compound 529],− (“−” indicates less than 50% inhibition at 10 μM),+ (“+” indicates greater than 50% inhibition at 10 μM),+ (“+” indicates greater than 50% inhibition at 10 μM),+ (“+” indicates greater than 50% inhibition at 10 μM),+ (“+” indicates greater than 50% inhibition at 10 μM),+ (“+” indicates greater than 50% inhibition at 10 μM),− (“−” indicates less than 50% inhibition at 10 μM),+ (“+” indicates greater than 50% inhibition at 10 μM),− (“−” indicates less than 50% inhibition at 10 μM),− (“−” indicates less than 50% inhibition at 10 μM),− (“−” indicates less than 50% inhibition at 10 μM),–,–,–,–,–
N=C(N)NCCC(=O)N[C@H]1C(OCc2ccc(Cl)cc2)O[C@H](COCc2ccccc2)[C@@H](O)[C@@H]1OCc1ccc2ccccc2c1 (stereo partly shown) [compound 530],− (“−” indicates less than 50% inhibition at 10 μM),–,–,–,–,–,+ (“+” indicates greater than 50% inhibition at 10 μM),+ (“+” indicates greater than 50% inhibition at 10 μM),− (“−” indicates less than 50% inhibition at 10 μM),+ (“+” indicates greater than 50% inhibition at 10 μM),− (“−” indicates less than 50% inhibition at 10 μM),+ (“+” indicates greater than 50% inhibition at 10 μM),+ (“+” indicates greater than 50% inhibition at 10 μM),+ (“+” indicates greater than 50% inhibition at 10 μM),+ (“+” indicates greater than 50% inhibition at 10 μM),+ (“+” indicates greater than 50% inhibition at 10 μM)
N=C(N)NCCC(=O)N[C@H]1C(OCc2ccc(Cl)cc2)O[C@H](COCc2ccccc2)[C@@H](O)[C@@H]1OCc1ccc2ccccc2c1 (stereo partly shown) [compound 531],− (“−” indicates less than 50% inhibition at 10 μM),–,–,–,–,–,+ (“+” indicates greater than 50% inhibition at 10 μM),+ (“+” indicates greater than 50% inhibition at 10 μM),− (“−” indicates less than 50% inhibition at 10 μM),+ (“+” indicates greater than 50% inhibition at 10 μM),− (“−” indicates less than 50% inhibition at 10 μM),+ (“+” indicates greater than 50% inhibition at 10 μM),+ (“+” indicates greater than 50% inhibition at 10 μM),+ (“+” indicates greater than 50% inhibition at 10 μM),+ (“+” indicates greater than 50% inhibition at 10 μM),+ (“+” indicates greater than 50% inhibition at 10 μM)
N=C(N)NCCC(=O)N[C@H]1C(OCc2ccc(Cl)cc2)O[C@H](COCc2ccc(Cl)cc2)[C@@H](O)[C@@H]1OCc1ccc2ccccc2c1 (stereo partly shown) [compound 532],− (“−” indicates less than 50% inhibition at 10 μM),–,–,–,–,–,+ (“+” indicates greater than 50% inhibition at 10 μM),+ (“+” indicates greater than 50% inhibition at 10 μM),− (“−” indicates less than 50% inhibition at 10 μM),+ (“+” indicates greater than 50% inhibition at 10 μM),− (“−” indicates less than 50% inhibition at 10 μM),+ (“+” indicates greater than 50% inhibition at 10 μM),+ (“+” indicates greater than 50% inhibition at 10 μM),+ (“+” indicates greater than 50% inhibition at 10 μM),+ (“+” indicates greater than 50% inhibition at 10 μM),+ (“+” indicates greater than 50% inhibition at 10 μM)
